“Also recorded” adds a separate entry of the source. Where two headings read alike, the source gives them in different places.
Legend:
[1] = Compound toxicity in the attachment assay, sister plates, MTS dye reduction; format: cell-based; conditions: human, HeLa CD4 LTR β-gal cells, read-out: TC50
Protocol: (§1) At assay termination the assay plates were stained with the soluble tetrazolium-based dye MTS (CellTiter96® Reagent Promega) to determine cell viability and quantify compound toxicity. MTS is metabolized by the mitochondria enzymes of metabolically active cells to a soluble formazan product, allowing the rapid quantitative analysis cell viability and compound cytotoxicity. […] At termination of the assay 20 μL of MTS reagent was added per well and incubated for 4 h at 37° C. Adhesive plate sealers were used in place of the lids, the sealed plate was inverted several times to mix the soluble formazan product and the plate was read spectrophotometrically at 490 nm with a Molecular Devices Vmax plate reader.
The attachment assay was performed with the HeLa CD4 LTR β-gal cells available from the AIDS Research and Reference Reagent Repository. […] HeLa CD4 LTR β-gal cells express cell surface CD4 and contain an LTR β-galactosidase reporter construct. Upon infection either the Tat protein incorporated into the virion or new Tat produced following virus integration and transcription trans-activates the LTR β-gal reporter, leading to expression of the β-galactosidase enzyme. HeLa CD4 LTR β-gal cells are routinely cultured with the required selection antibiotics and screened for mycoplasma contamination. Twenty-four h prior to initiation of the assay cells were trypsinized, counted and 1×10^4 cells placed in a 0.2 cm well in media without selection antibiotics. […] A known titer of virus was then added to the wells and the incubation continued for 1 h. At the end of the incubation the wells were washed 6 times with media and the culture continued for 48 h. At 48 h the wells were washed one time with PBS and β-galactosidase enzyme expression determined by chemiluminescence per manufacturers instructions (Tropix Gal-screen™, Tropix, Bedford, Mass.). Compound toxicity was monitored on sister plates using MTS dye reduction.

HIV-1 = experiment: HeLa CD4 LTR β-gal HIV-1 attachment assay (Experimental Example 1); format: cell-based; conditions: for IC50: Human immunodeficiency virus 1, HeLa; for inhibition of HIV attachment/entry: following a 24 h pre-incubation
[2] = PBMC cell viability in time of addition assay (MTS / Trypan Blue); format: cell-based, Human; conditions: human; treatment −4 h pre; read-out: TC50
From the text: (§2) Human peripheral blood mononuclear cells (PBMCs) from a minimum of 2 donors, that have been blasted with PHA and IL-2, were counted, viability determined by Trypan Blue dye exclusion and mixed in equal ratios. Pooled donors were used to minimize the variability observed between individual donors which results from quantitative and qualitative differences in HIV infection and overall response to the PHA and IL-2 of primary lymphocyte populations. The cells were resuspended at 1×10^6 cells /mL in RPMI 1640 without phenol red supplemented with 15% Fetal Bovine Serum (heat inactivated), 2 mM L-glutamine, 100 U/mL penicillin, 100 μg/mL streptomycin, 10 μg/mL gentamycin and IL-2 (20 U/mL, R&D Systems, Minneapolis, Minn.). Fifty microliters of cells were then distributed to the inner 60 wells of a 96 well round bottom microtiter culture plate in a standard format developed by the Infectious Disease Research department of Southern Research Institute. Each plate contains cell control wells (cells only), virus control wells (cells plus virus), and experimental wells (drug plus cells plus virus). Alternatively, cells were cultured in T25 cm^2 or T75 cm^2 tissue culture flasks at a starting density of 1×10^6 cells per ml. Serially diluted compounds were added to the microtiter plate or tissue culture flask followed by the appropriate pre-titered strain of HIV-1. For virus replication inhibition experiments the HIV-1 strain RoJo was used. This is a low passage presumable subtype B pediatric isolate with a syncytium inducing (SI) phenotype in MT-2 cells isolated by Southern Research Institute personnel. All samples were assayed in triplicate where possible with an accompanying determination of compound toxicity. The final volume per well in the microtiter plates was 200 μL. The final volume in the tissue culture flask varied depending upon experimental design and flask size. Assays were incubated for 6 days in a humidified atmosphere at 37° C., 5% CO^2, after which supernatants were collected, for analysis of RT activity and cell viability by MTS dye reduction. Culture were also examined microscopically, any abnormalities noted, and in the case of tissue culture flasks cell counts and viability determined by Trypan Blue Dye exclusion.
(§3) Time of addition assays were performed with PBMCs in two ways. For both assays, PBMCs were isolated and cultured under the conditions as described above. Time of addition assays were carried out in either a tissue culture flask format (T-75 cm^2) or in microtiter wells. In both cases due to the lack of plastic adherence and heterogeneity of the PBMC population for susceptibility to infection, it was not possible to use complete removal of virus following a timed adsorption to synchronize the infection and limit the assay to a single round of infection. Therefore, serial washing by partial removal of the media was used to reduce the concentration of virus and compound (if required) in the assay. Compound addition in relationship to antiviral activity was either assessed over a short addition interval immediately before or after virus addition or for up to 72 h post infection. For all assays virus replication was assessed at 6 days of culture by determining RT expression in cell-free supernatants. In the tissue culture flask format cells were counted and Trypan Blue Dye exclusion used to monitor compound cytotoxicity. Cell viability in the 96 well microtiter plate format was determined by MTS dye reduction. AZT was used as a positive control.
as §1, with “Adhesive plate sealers were used in place of the lids, the sealed plate was inverted several times to mix the soluble formazan product and the plate was read spectrophotometrically at 490 nm with a Molecular Devices Vmax plate reader.” left out

[3] = test system: peripheral blood mononuclear cells (PBMCs); experiment: as above; format: cell-based, Human; conditions: read-out: TC50 (the source's name)
From the text: as §2, §3
as §1, with “Adhesive plate sealers were used in place of the lids, the sealed plate was inverted several times to mix the soluble formazan product and the plate was read spectrophotometrically at 490 nm with a Molecular Devices Vmax plate reader.” left out

HIV-1 strain RoJo = experiment: PBMC time of addition assay (RT activity in supernatant at 6 days); format: cell-based; conditions: for IC50: Human immunodeficiency virus 1, PBMC
From the text: as §2, §3
Reverse transcriptase activity was measured in cell-free supernatants. Tritiated thymidine triphosphate (NEN) (TTP) was resuspended in distilled H2O at 5 Ci/mL. Poly rA and oligo dT were prepared as a stock solution which was kept at −20° C. The RT reaction buffer was prepared fresh on a daily basis and consists of 125 μL 1.0 M EGTA, 125 μL dH2O, 110 μL 10% SDS, 50 μL 1.0 M Tris (pH 7.4), 50 μL 1.0 M DTT, and 40 μL 1.0 M MgCl2. […]

[4] = addition prior to infection, pre-treatment 0 h
[5] = addition prior to infection, pre-treatment 2 h
[6] = addition prior to infection, pre-treatment 4 h
[7] = addition prior to infection, pre-treatment 24 h

| SMILES | CC50 at 48 h ([1]; Experiment 1, pretreat 0 h) [µM] | CC50 at 48 h ([1]; Experiment 1, pretreat 4 h) [µM] | CC50 at 48 h ([1]; Experiment 1, pretreat 24 h) [µM] | CC50 at 48 h ([1]; Experiment 2, pretreat 0 h) [µM] | CC50 at 48 h ([1]; Experiment 2, pretreat 4 h) [µM] | CC50 at 48 h ([1]; Experiment 2, pretreat 24 h) [µM] | IC50 (HIV-1; Experiment 1, pretreat 0 h) [µM] | IC50 (HIV-1; Experiment 1, pretreat 4 h) [µM] | IC50 (HIV-1; Experiment 1, pretreat 24 h) [µM] | IC50 (HIV-1; Experiment 2, pretreat 0 h) [µM] | IC50 (HIV-1; Experiment 2, pretreat 4 h) [µM] | IC50 (HIV-1; Experiment 2, pretreat 24 h) [µM] | inhibition of HIV attachment/entry (HIV-1) | Comment: suppression of β-galactosidase activity (HIV-1; pretreat 24 h) | CC50 at 6 days [2] [µM] | CC50 ([3]; treatment 6 h post) [µM] | CC50 ([3]; treatment at infection) [µM] | IC50 (HIV-1 strain RoJo; 4 h, treatment −4 h pre) [µM] | IC50 (HIV-1 strain RoJo; 6 h, treatment 6 h post) [µM] | IC50 (HIV-1 strain RoJo; [4]) [µM] | further results |
| --- | --- | --- | --- | --- | --- | --- | --- | --- | --- | --- | --- | --- | --- | --- | --- | --- | --- | --- | --- | --- | --- |
| CC1=CCC2C(C1)c1c(O)cc(C(C)(C)CCCC(C)C)cc1OC2(C)C (centres unmarked) [IMG509, 3-Norpentyl-3-(1,1,5-trimethylhexyl)-Δ8-tetrahydrocannabinol] | > 50 | > 50 | > 50 | > 50 | 37 | 14.9 | > 50 | 21 | 11.5 | 28 | 36 | 3.5 | not | Suppression of β-galactosidase activity | > 100 | > 100 | > 100 | 19.6 | 10 | 9.3 | β-galactosidase production relative to background (cells alone+compounds) (HIV-1; following 24 h exposure): suppressed β-galactosidase production below background; Comment: transient suppression lost at lower concentrations (HIV-1; pretreat 0 h): transient suppression of virus replication; also recorded: Transient suppression lost with at lower; fold decrease in IC50 (HIV-1 strain RoJo; 24 h pretreatment): approximately 2 fold; IC50 (HIV-1 strain RoJo; [5]): 11 µM; IC50 (HIV-1 strain RoJo; [6]): 12.6 µM; IC50 (HIV-1 strain RoJo; [7]): 6.6 µM; IC50 (HIV-1 strain RoJo; treatment at infection): 17.5 µM |
| Cc1c(O)cc(C(C)(C)CCCC(C)C)cc1O [IMG510, 2-Methyl-5-(1,1,5-trimethylhexyl)resorcinol] | > 50 | > 50 | > 50 | > 50 | > 50 | 39.4 | > 50 | > 50 | 0.14 | > 50 | > 50 | 11.5 | consistent inhibition | Suppression of β-galactosidase activity | > 100 | > 100 | > 100 | 17.7 | 14.4 | 13.4 | β-galactosidase production relative to background (cells alone+compounds) (HIV-1; following 24 h exposure): suppressed β-galactosidase production below background; Comment: transient suppression lost at lower concentrations (HIV-1; pretreat 4 h): transient suppression of virus replication; also recorded: Transient suppression lost with at lower; fold decrease in IC50 (HIV-1 strain RoJo; 2 h pretreatment): 9.5-fold decrease in; IC50 (HIV-1 strain RoJo; [5]): 1.4 µM; IC50 (HIV-1 strain RoJo; [6]): 11.5 µM; IC50 (HIV-1 strain RoJo; [7]): 9.5 µM; IC50 (HIV-1 strain RoJo; treatment at infection): 16.1 µM |
| Cc1ccc2c(c1)-c1c(O)cc(C(C)(C)CCCC(C)C)cc1OC2(C)C [IMG511, 3-Norpentyl-3-(1,1,5-trimethylhexyl)cannabinol] | > 50 | > 50 | > 50 | > 50 | > 50 | 11.1 | 25 | 9.5 | 2.5 | < 0.16 | 8.3 | 7.1 | consistent inhibition | Suppression of β-galactosidase activity | > 100 | > 100 | > 100 | 15.2 | 9.3 | 6.6 | β-galactosidase production relative to background (cells alone+compounds) (HIV-1; at all times): suppressed β-galactosidase production below background; Comment: suppression of β-galactosidase activity (HIV-1; pretreat 0 h): Suppression of β-galactosidase activity; Comment: suppression of β-galactosidase activity (HIV-1; pretreat 4 h): Suppression of β-galactosidase activity,; Comment: transient suppression lost at lower concentrations (HIV-1; pretreat 4 h): Transient suppression lost with at lower; fold increase in IC50 (HIV-1 strain RoJo; 24 h pretreatment): 5-fold increase in IC50; IC50 (HIV-1 strain RoJo; [5]): 9.4 µM; IC50 (HIV-1 strain RoJo; [6]): 11.7 µM; IC50 (HIV-1 strain RoJo; [7]): 33.2 µM; IC50 (HIV-1 strain RoJo; treatment at infection): 16.9 µM |
